Reference: US12077503B2, “Substituted cyclic amides and their use as herbicides” (FMC CORPORATION, priority 2015, dated 2024)

Key:
Format in all cases: in vivo
[1] = system: giant foxtail (Setaria faberii); assay: Test A postemergence; details: Setaria faberi, post-emergence, 240 h, 125 g ai/ha, postemergence; visual injury after approximately 10 d; 0 to 100 scale (0 no effect, 100 complete control); read-out: Plant response rating, Foxtail, Giant
Method in brief: (§1)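 Ratings of 0 (no effect) to 100 (complete control) come from visual comparison with untreated controls roughly 10 d after treatment. Test chemicals, formulated in a non-phytotoxic solvent mixture with surfactant, were applied either as a preemergence directed soil spray on seeded soil or postemergence to one- to two-leaf plants 2 to 10 cm tall.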

[2] = system: pigweed (Amaranthus retroflexus); assay: Test A postemergence; details: Amaranthus retroflexus, post-emergence, 240 h, 125 g ai/ha, postemergence; visual injury after approximately 10 d; 0 to 100 scale (0 no effect, 100 complete control); read-out: Plant response rating, Pigweed
Method in brief: as §1

[3] = system: ryegrass, Italian (Italian ryegrass, Lolium multiflorum); assay: Test A postemergence; details: Lolium multiflorum, post-emergence, 240 h, 125 g ai/ha, postemergence; visual injury after approximately 10 d; 0 to 100 scale (0 no effect, 100 complete control); read-out: Plant response rating, Ryegrass, Italian
Method in brief: as §1

[4] = system: barnyardgrass (Echinochloa crus-galli); assay: Test A postemergence; details: Echinochloa crus-galli, post-emergence, 240 h, 125 g ai/ha, postemergence; visual injury after approximately 10 d; 0 to 100 scale (0 no effect, 100 complete control); read-out: Plant response rating, Barnyardgrass
Method in brief: as §1

[5] = system: sedge, umbrella (small-flower umbrella sedge, Cyperus difformis); assay: Test B flooded paddy test; details: Cyperus difformis, Flood, 250 g ai/ha; scale of 0 to 100 where 0 is no effect and 100 is complete control; read-out: Sedge, Umbrella plant response rating
Method in brief: (§2)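 Compound goes directly into floodwater once pots are flooded 3 cm above soil, targeting plants at two leaves; the water depth is then held for the test duration. Plants sit 13–15 d in a greenhouse and are rated visually, 100 denoting complete control.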

[6] = system: ducksalad (Heteranthera limosa); assay: Test B flooded paddy test; details: Heteranthera limosa, Flood, 250 g ai/ha; scale of 0 to 100 where 0 is no effect and 100 is complete control; read-out: Ducksalad plant response rating
Method in brief: as §2

[7] = system: barnyardgrass (Echinochloa crus-galli); assay: Test B flooded paddy test; details: Echinochloa crus-galli, Flood, 250 g ai/ha; scale of 0 to 100 where 0 is no effect and 100 is complete control; read-out: Barnyardgrass plant response rating
Method in brief: as §2

rice (Oryra sativa) = assay: Test B flooded paddy test; details: Oryza sativa, Flood, 250 g ai/ha; scale of 0 to 100 where 0 is no effect and 100 is complete control; read-out: Rice plant response rating
Method in brief: as §2

[8] = system: giant foxtail (Setaria faberii); assay: Test A preemergence; details: Setaria faberi, pre-emergence, 240 h, preemergence, read-out: Plant response rating, Foxtail, Giant
Method in brief: as §1

[9] = system: ragweed (common ragweed, Ambrosia elatior); assay: Test A preemergence; details: Ambrosia artemisiifolia, pre-emergence, 240 h, preemergence, read-out: Plant response rating, Ragweed
Method in brief: as §1

[10] = system: pigweed (Amaranthus retroflexus); assay: Test A preemergence; details: Amaranthus retroflexus, pre-emergence, 240 h, preemergence, read-out: Plant response rating, Pigweed
Kochia (Kochia scoparia) = assay: Test A preemergence; details: Bassia scoparia, pre-emergence, 240 h, preemergence, read-out: Plant response rating, Kochia
Method in brief: as §1

[11] = system: ryegrass, Italian (Italian ryegrass, Lolium multiflorum); assay: Test A preemergence; details: Lolium multiflorum, pre-emergence, 240 h, preemergence, read-out: Plant response rating, Ryegrass, Italian
Method in brief: as §1

[12] = system: barnyardgrass (Echinochloa crus-galli); assay: Test A preemergence; details: Echinochloa crus-galli, pre-emergence, 240 h, preemergence, read-out: Plant response rating, Barnyardgrass
Method in brief: as §1

[13] = 125 g ai/ha, visual rating after approx. 10 d, 0 to 100 scale where 0 is no effect and 100 is complete control
[14] = 500 g ai/ha, 0 to 100 scale, 0 = no effect, 100 = complete control

C=CCN1C[C@H](c2ccc(OC)c(F)c2)[C@@H](C(=O)Nc2ccccc2S(C)(=O)=O)C1=O [Compound 724]
0%: pest or weed control at 125 g/ha [1] | pest or weed control at 125 g/ha [2] | pest or weed control at 125 g/ha [3] | pest or weed control at 125 g/ha [4] | pest or weed control at 250 g/ha [5] | pest or weed control at 250 g/ha [6] | pest or weed control at 250 g/ha [7] | pest or weed control at 250 g/ha (rice (Oryra sativa)) | pest or weed control at 125 g/ha [8, 13] | pest or weed control at 500 g/ha [8, 14] | pest or weed control at 125 g/ha [9, 13] | pest or weed control at 500 g/ha [9, 14] | pest or weed control at 125 g/ha [10, 13] | pest or weed control at 500 g/ha [10, 14] | pest or weed control at 125 g/ha (Kochia (Kochia scoparia); [13]) | pest or weed control at 500 g/ha (Kochia (Kochia scoparia); [14]) | pest or weed control at 125 g/ha [11, 13] | pest or weed control at 500 g/ha [11, 14] | pest or weed control at 125 g/ha [12, 13] | pest or weed control at 500 g/ha [12, 14]
